From US20100286389A1, “STABLE CRYSTAL OF BETA-LACTAM COMPOUND” (priority 2007, published 2010)
One block for each compound: values may come before it.

How the values were obtained:
[1] = system: Gram positive bacteria, especially methicillin resistant staphylococcus and methicillin resistant coagulase negative staphylococcus; settings: cited from earlier work
[2] = Stability test on Form I crystal under humidity condition (Test 4); type: physicochemical; settings: usual handling condition
From the text: Evaluation was based on change of area percentage of Compound A with HPLC (High Performance Liquid Chromatography) under following conditions:
(§1) Column: SUMIPAX ODS-A212 (silica gel binding with octadecyl group, particle size 5 μm; 6.0 mm φ×15 cm), mobile phase A solution: a mixture of 0.005 mol/L phosphate buffer (pH7.0) and acetonitrile (300:23(v/v)), mobile phase B solution: acetonitrile, solvent for sample: water and acetonitrile (90:10(v/v)), wavelength: 220 nm, column temperature: constant temperature around 25° C., flow rate: 1.0 mL/min, injection amount: 10 μL, and gradient condition: […]
In order to confirm the stability on Form I crystal under humidity condition was conducted following test. The test was carried out by using moisture-absorbed Form I crystal, which was prepared by storing Form I crystal obtained by the method of Example 2 under the atmosphere with 53% RH in a whole day in order to make it absorb moisture.

[3] = Stability test (Test 3), closed vial, HPLC area percentage of Compound A; type: physicochemical
Protocol: Stability test on each test sample was conducted under following storage conditions.
as §1

SMILES: C[C@H]1C=C(c2csc(SC3=C(C(=O)O)N4C(=O)[C@H]([C@@H](C)O)[C@H]4[C@H]3C)n2)CN1 [Compound A, (4R,5S,6S)-6-[(1R)-1-hydroxyethyl]-4-methyl-3-({4-[(5S)-5-methyl-2,5-dihydro-1H-pyrrol-3-yl]-1,3-thiazol-2-yl}thio)-7-oxo-1-azabicyclo[3.2.0]hept-2-ene-2-carboxylic acid]
Activity against Gram positive bacteria [1]: excellent activity

Moisture absorption in words [2]: absorbs a little moisture
Stability in words [2]: excellent
Compound A (HPLC surface area %) ([3]; closed vial at 55° C., 2 weeks): 99.60%
Difference from initial value (HPLC surface area %) ([3]; closed vial at 55° C., 2 weeks): −0.17%
Compound A (HPLC surface area %) ([3]; closed vial at 55° C., 4 weeks): 99.60%
Difference from initial value (HPLC surface area %) ([3]; closed vial at 55° C., 4 weeks): −0.17%
Compound A (HPLC surface area %) ([3]; closed vial at 55° C., Initial): 99.77%
Difference from initial value (HPLC surface area %) ([3]; closed vial at 55° C., Initial): 0%
Stability in words ([3]; normal / usual storage condition, conclusion from the stability tests): extremely stable
SMILES: C[C@H]1C=C(c2csc(SC3=C(C(=O)O)N4C(=O)[C@H]([C@@H](C)O)[C@H]4[C@H]3C)n2)CN1 [Form I crystal, (4R,5S,6S)-6-[(1R)-1-hydroxyethyl]-4-methyl-3-({4-[(5S)-5-methyl-2,5-dihydro-1H-pyrrol-3-yl]-1,3-thiazol-2-yl}thio)-7-oxo-1-azabicyclo[3.2.0]hept-2-ene-2-carboxylic acid]

Compound A (HPLC surface area %) ([3]; closed vial at 50° C., 1 week): 73.40%
Compound A (HPLC surface area %) ([3]; closed vial at 50° C., 3 weeks): 54.53%
Compound A (HPLC surface area %) ([3]; closed vial at 50° C., 6 weeks): 39.93%
Compound A (HPLC surface area %) ([3]; closed vial at 50° C., 8 weeks): 41.33%
Compound A (HPLC surface area %) ([3]; closed vial at 50° C., 1 day): 91.68%
Compound A (HPLC surface area %) ([3]; closed vial at 50° C., Initial): 97.95%
SMILES: C[C@H]1C=C(c2csc(SC3=C(C(=O)O)N4C(=O)[C@H]([C@@H](C)O)[C@H]4[C@H]3C)n2)CN1 [amorphous Compound A, (4R,5S,6S)-6-[(1R)-1-hydroxyethyl]-4-methyl-3-({4-[(5S)-5-methyl-2,5-dihydro-1H-pyrrol-3-yl]-1,3-thiazol-2-yl}thio)-7-oxo-1-azabicyclo[3.2.0]hept-2-ene-2-carboxylic acid]
